In patent publication US10961200B2, “Small molecule inhibitors of lactate dehydrogenase and methods of use thereof” (THE UNITED STATES OF AMERICA, AS REPRESENTED BY THE …, priority 2014, dated 2021):

Molecular target: Human LDHA (Homo sapiens (Human), UniProt P00338)
Experiment: human LDHA primary biochemical assay (resazurin/diaphorase coupled, fluorescence)
Conditions: LDHA inhibitory activity, activity level based on IC50 (Table 7)
Source text: Test compounds were placed in a Greiner Bio-One (Monroe, N.C.) 1536-well black solid bottom assay plate. 200 millimolar (mM) Tris HCl, pH 7.4, 100 micromolar […] EDTA and 0.01% TWEEN-20™, final concentration, was used as the assay buffer. The LDHA reagent was 2 nanomolar (nM) Human LDHA (Meridian Life Science, Inc., Memphis, Tenn.), final concentration, in assay buffer.

SMILES	IC50
NS(=O)(=O)c1ccc(Cc2c(-c3cccc(OCc4ccccc4)c3)nn(-c3nc(C(=O)O)cs3)c2CC2CC2)cc1 [Compound 339]	< 100 nM
NS(=O)(=O)c1ccc(Cc2c(-c3cccc(OCc4ccccc4)c3)nn(-c3nc(C(=O)O)cs3)c2CC2CC2)cc1F [Compound 340]	< 100 nM
NS(=O)(=O)c1ccc(Cc2c(-c3cccc(OCc4ccccc4)c3)nn(-c3nc(C(=O)O)cs3)c2CC2CC2)c(F)c1 [Compound 341]	< 100 nM

Same assay, conditions: LDHA inhibitory activity, assay of Example 1; activity level classes

SMILES	IC50
CCOC(=O)c1csc(-n2nc(-c3ccc(F)c(-c4ccc(F)cc4)c3)c(Cc3ccc(S(N)(=O)=O)c(F)c3)c2C2CC2)n1 [Compound 246]	1000 to 57000 nM
CCOC(=O)c1csc(-n2nc(-c3ccc(F)c(-c4cccc(F)c4)c3)c(Cc3ccc(S(N)(=O)=O)c(F)c3)c2C2CC2)n1 [Compound 247]	1000 to 57000 nM
CCOC(=O)c1csc(-n2nc(-c3ccc(F)c(-c4cccc(OC)c4)c3)c(Cc3ccc(S(N)(=O)=O)c(F)c3)c2C2CC2)n1 [Compound 248]	> 57000 nM
Cc1ccc(-c2cc(-c3nn(-c4nc(C(=O)O)cs4)c(C4CC4)c3Cc3ccc(S(N)(=O)=O)c(F)c3)ccc2F)cc1 [Compound 249]	< 100 nM
NS(=O)(=O)c1ccc(Cc2c(-c3ccc(F)c(-c4ccc(F)cc4)c3)nn(-c3nc(C(=O)O)cs3)c2C2CC2)cc1F [Compound 250]	< 100 nM
Cc1ccc(-c2cc(-c3nn(-c4nc(C(=O)O)cs4)c(C4CC4)c3Cc3ccc(S(N)(=O)=O)cc3F)ccc2F)cc1 [Compound 253]	< 100 nM
NS(=O)(=O)c1ccc(Cc2c(-c3ccc(F)c(-c4ccc(F)cc4)c3)nn(-c3nc(C(=O)O)cs3)c2C2CC2)c(F)c1 [Compound 254]	< 100 nM
NS(=O)(=O)c1ccc(Cc2c(-c3ccc(F)c(-c4cccc(F)c4)c3)nn(-c3nc(C(=O)O)cs3)c2C2CC2)c(F)c1 [Compound 255]	< 100 nM
COc1cccc(-c2cc(-c3nn(-c4nc(C(=O)O)cs4)c(C4CC4)c3Cc3ccc([S+](N)(=O)[O-])cc3F)ccc2F)c1 [Compound 256]	< 100 nM
CC#Cc1cccc(-c2nn(-c3nc(C(=O)O)cs3)c(CC3CC3)c2Cc2ccc(S(N)(=O)=O)c(F)c2)c1 [Compound 270]	< 100 nM
C#Cc1c(Cc2ccc(S(N)(=O)=O)cc2)c(-c2ccccc2)nn1-c1nc(C(=O)O)cs1 [Compound 271]	1000 to 57000 nM
CCOC(=O)c1csc(-n2nc(-c3ccccc3)c(Cc3ccc(S(N)(=O)=O)cc3)c2C2CC2)n1 [Compound 272]	> 57000 nM
CCOC(=O)c1csc(-n2nc(C3CCCCC3)c(Oc3ccc([S+](N)(=O)[O-])cc3)c2-c2ccccc2)n1 [Compound 273]	> 57000 nM
CCOC(=O)c1csc(-n2nc(-c3ccccc3)c(Oc3ccc([S+](N)(=O)[O-])cc3)c2C2CCCCC2)n1 [Compound 274]	> 57000 nM
COc1cc(-c2nn(-c3nc(C(=O)O)cs3)c(CC3CC3)c2Cc2ccc(S(N)(=O)=O)cc2)ccc1F [Compound 278]	< 100 nM
CCOC(=O)c1csc(-n2nc(-c3cccc(-c4ccccc4)c3)c(Cc3ccc(S(N)(=O)=O)cc3)c2CC2CC2)n1 [Compound 279]	1000 to 57000 nM
Cc1ccc(-c2cccc(-c3nn(-c4nc(C(=O)O)cs4)c(CC4CC4)c3Cc3ccc(S(N)(=O)=O)cc3F)c2)cc1 [Compound 282]	< 100 nM
Cc1ccc(-c2cc(-c3c(Cc4ccc(S(N)(=O)=O)cc4F)c(CC4CC4)nn3-c3nc(C(=O)O)cs3)ccc2F)cc1 [Compound 285]	1000 to 57000 nM
CCOC(=O)c1csc(-n2nc(-c3cccc(-c4ccccc4)c3)c(Cc3ccc(S(N)(=O)=O)cc3)c2C2(C(F)(F)F)CC2)n1 [Compound 297]	> 57000 nM

SMILES	IC50
NS(=O)(=O)c1ccc(Cc2c(-c3cccc(-c4ccccc4)c3)nn(-c3nc(C(=O)O)cs3)c2C2(C(F)(F)F)CC2)cc1 [Compound 299]	1000 to 57000 nM
NS(=O)(=O)c1ccc(Cc2c(-c3cccc(-c4ccccc4)c3)nn(-c3nc(C(=O)O)cs3)c2C2(C(F)(F)F)CC2)c(F)c1 [Compound 300]	100 to 1000 nM
NS(=O)(=O)c1ccc(Cc2c(-c3cccc(-c4ccccc4)c3)nn(-c3nc(C(=O)O)cs3)c2C2(C(F)(F)F)CC2)cc1F [Compound 302]	1000 to 57000 nM
Cc1ccc(-c2cccc(-c3nn(-c4nc(C(=O)O)cs4)c(C(F)(F)F)c3Cc3ccc(S(N)(=O)=O)cc3)c2)cc1 [Compound 311]	< 100 nM
N[S+](=O)([O-])c1ccc(Cc2c(-c3cccc(-c4ccc(F)cc4)c3)nn(-c3nc(C(=O)O)cs3)c2C(F)(F)F)cc1 [Compound 312]	< 100 nM
N[S+](=O)([O-])c1ccc(Cc2c(-c3cccc(-c4cccc(F)c4)c3)nn(-c3nc(C(=O)O)cs3)c2C(F)(F)F)cc1 [Compound 313]	< 100 nM
COc1cccc(-c2cccc(-c3nn(-c4nc(C(=O)O)cs4)c(C(F)(F)F)c3Cc3ccc(S(N)(=O)=O)cc3)c2)c1 [Compound 314]	< 100 nM
CCOC(=O)c1csc(-n2nc(CC3CC3)c(Cc3ccc(S(N)(=O)=O)cc3F)c2-c2ccc(F)c(-c3cccc(F)c3)c2)n1 [Compound 315]	> 57000 nM
CCOC(=O)c1csc(-n2nc(-c3ccc(F)c(-c4cccc(F)c4)c3)c(Cc3ccc(S(N)(=O)=O)cc3F)c2CC2CC2)n1 [Compound 316]	1000 to 57000 nM
CCOC(=O)c1csc(-n2nc(CC3CC3)c(Cc3ccc(S(N)(=O)=O)c(F)c3)c2-c2ccc(F)c(-c3cccc(F)c3)c2)n1 [Compound 317]	> 57000 nM
CCOC(=O)c1csc(-n2nc(-c3ccc(F)c(-c4cccc(F)c4)c3)c(Cc3ccc(S(N)(=O)=O)c(F)c3)c2CC2CC2)n1 [Compound 318]	> 57000 nM
CCOC(=O)c1csc(-n2nc(CC3CC3)c(Cc3ccc(S(N)(=O)=O)cc3F)c2-c2ccc(F)c(-c3cccc(OC)c3)c2)n1 [Compound 319]	> 57000 nM
CCOC(=O)c1csc(-n2nc(-c3ccc(F)c(-c4cccc(OC)c4)c3)c(Cc3ccc(S(N)(=O)=O)cc3F)c2CC2CC2)n1 [Compound 320]	> 57000 nM
CCOC(=O)c1csc(-n2nc(CC3CC3)c(Cc3ccc(S(N)(=O)=O)c(F)c3)c2-c2ccc(F)c(-c3cccc(OC)c3)c2)n1 [Compound 321]	> 57000 nM
CCOC(=O)c1csc(-n2nc(-c3ccc(F)c(-c4cccc(OC)c4)c3)c(Cc3ccc(S(N)(=O)=O)c(F)c3)c2CC2CC2)n1 [Compound 322]	1000 to 57000 nM
N[S+](=O)([O-])c1ccc(Cc2c(CC3CC3)nn(-c3nc(C(=O)O)cs3)c2-c2ccc(F)c(-c3cccc(F)c3)c2)cc1F [Compound 325]	1000 to 57000 nM
COc1cccc(-c2cc(-c3nn(-c4nc(C(=O)O)cs4)c(CC4CC4)c3Cc3ccc(S(N)(=O)=O)cc3F)ccc2F)c1 [Compound 328]	< 100 nM
CCOC(=O)c1csc(-n2nc(-c3cccc(OC4CCCC4)c3)c(Cc3ccc(S(N)(=O)=O)c(F)c3)c2CC2CC2)n1 [Compound 333]	1000 to 57000 nM
CCOC(=O)c1csc(-n2nc(-c3cccc(OC4CCCC4)c3)c(Cc3ccc(S(N)(=O)=O)cc3F)c2CC2CC2)n1 [Compound 335]	1000 to 57000 nM

Same assay, conditions: read-out: Inhibitory activity IC50

SMILES	IC50
N[S+](=O)([O-])c1ccc(Cc2c(Cc3ccccc3)nn(-c3nc(C(=O)O)cs3)c2-c2ccccc2)cc1 [Compound 275]	1000 to 57000 nM
COc1cc(-c2c(Cc3ccc([S+](N)(=O)[O-])cc3)c(CC3CC3)nn2-c2nc(C(=O)O)cs2)ccc1F [Compound 277]	1000 to 57000 nM
Cc1ccc(-c2cccc(-c3c(Cc4ccc([S+](N)(=O)[O-])cc4)c(CC4CC4)nn3-c3nc(C(=O)O)cs3)c2)cc1 [Compound 280]	1000 to 57000 nM
Cc1ccc(-c2cc(-c3c(Cc4ccc([S+](N)(=O)[O-])cc4)c(CC4CC4)nn3-c3nc(C(=O)O)cs3)ccc2F)cc1 [Compound 283]	1000 to 57000 nM
Cc1ccc(-c2cccc(-c3c(Cc4ccc([S+](N)(=O)[O-])c(F)c4)c(CC4CC4)nn3-c3nc(C(=O)O)cs3)c2)cc1 [Compound 286]	1000 to 57000 nM
Cc1ccc(-c2cc(-c3c(Cc4ccc([S+](N)(=O)[O-])c(F)c4)c(CC4CC4)nn3-c3nc(C(=O)O)cs3)ccc2F)cc1 [Compound 287]	1000 to 57000 nM
N[S+](=O)([O-])c1ccc(Cc2c(CC3CC3)nn(-c3nc(C(=O)O)cs3)c2-c2cccc(-c3ccccc3)c2)c(F)c1 [Compound 289]	1000 to 57000 nM
N[S+](=O)([O-])c1ccc(Cc2c(CC3CC3)nn(-c3nc(C(=O)O)cs3)c2-c2cccc(-c3ccccc3)c2)cc1F [Compound 291]	1000 to 57000 nM
N[S+](=O)([O-])c1ccc(Cc2c(CC3CC3)nn(-c3nc(C(=O)O)cs3)c2-c2ccc(F)c(-c3ccc(F)cc3)c2)cc1 [Compound 292]	1000 to 57000 nM
N[S+](=O)([O-])c1ccc(Cc2c(CC3CC3)nn(-c3nc(C(=O)O)cs3)c2-c2ccc(F)c(-c3ccc(C4CC4)cc3)c2)cc1 [Compound 293]	1000 to 57000 nM
N[S+](=O)([O-])c1ccc(Cc2c(CC3CC3)nn(-c3nc(C(=O)O)cs3)c2-c2ccc(F)c(Br)c2)cc1 [Compound 295]	1000 to 57000 nM
N[S+](=O)([O-])c1ccc(Cc2c(C3(C(F)(F)F)CC3)nn(-c3nc(C(=O)O)cs3)c2-c2cccc(-c3ccccc3)c2)cc1F [Compound 301]	1000 to 57000 nM
N[S+](=O)([O-])c1ccc(Cc2c(CC(F)(F)F)nn(-c3nc(C(=O)O)cs3)c2-c2cccc(-c3ccccc3)c2)cc1 [Compound 303]	1000 to 57000 nM
CC(C)c1ccc(-c2cc(-c3c(Cc4ccc([S+](N)(=O)[O-])cc4)c(CC4CC4)nn3-c3nc(C(=O)O)cs3)ccc2F)cc1 [Compound 305]	1000 to 57000 nM
N[S+](=O)([O-])c1ccc(Cc2c(CC3CC3)nn(-c3nc(C(=O)O)cs3)c2-c2ccc(F)c(-c3ccc(F)cc3)c2)c(F)c1 [Compound 308]	1000 to 57000 nM
N[S+](=O)([O-])c1ccc(Cc2c(CC3CC3)nn(-c3nc(C(=O)O)cs3)c2-c2ccc(F)c(-c3cccc(F)c3)c2)c(F)c1 [Compound 323]	1000 to 57000 nM
COc1cccc(-c2cc(-c3c(Cc4ccc([S+](N)(=O)[O-])c(F)c4)c(CC4CC4)nn3-c3nc(C(=O)O)cs3)ccc2F)c1 [Compound 329]	1000 to 57000 nM
